Laboratory results as given in patent publication US20250041175A1, “COMPOSITION FOR SMOOTHING THE SKIN AND/OR THE LIPS” (L V M H RECHERCHE, priority 2021, published 2025).

Assay: Penetration of polyglycerols into the layers of the skin, 7T-MALDI-FT-ICR mass spectrometry imaging (MSI)
Format: in vitro ADME
Conditions: sections of human skin, preliminary study

| penetration speed of polyglycerols | Substance | depth of penetration at the surface layers of the skin (epidermis and superficial dermis) |
| --- | --- | --- |
|  | Polyglycerol-5 | penetrate less deeply than polyglycerol-3 or polyglycerol-4 |
| penetrates rapidly | polyglycerol-3 | reaches the superficial dermis very quickly |
| penetrates more quickly | polyglycerol-4 | stationed in the superficial dermis |
